Molecular target: T1, human EAA3a receptor (Homo sapiens, UniProt P39086)
T1 construct: To provide the entire coding region of the receptor; expressed in transfected cells; host or cells: COS-1 (monkey, ATCC CRL 1650), transient transfection with pcDNAIA/humEAA3a; membrane preparation
Experiment: NMDA binding to membranes of EAA3a-producing COS cells
Conditions: EAA3a-producing COS cell membranes

T1 sequence (P39086 31-905 isoform P39086-2 limits assumed): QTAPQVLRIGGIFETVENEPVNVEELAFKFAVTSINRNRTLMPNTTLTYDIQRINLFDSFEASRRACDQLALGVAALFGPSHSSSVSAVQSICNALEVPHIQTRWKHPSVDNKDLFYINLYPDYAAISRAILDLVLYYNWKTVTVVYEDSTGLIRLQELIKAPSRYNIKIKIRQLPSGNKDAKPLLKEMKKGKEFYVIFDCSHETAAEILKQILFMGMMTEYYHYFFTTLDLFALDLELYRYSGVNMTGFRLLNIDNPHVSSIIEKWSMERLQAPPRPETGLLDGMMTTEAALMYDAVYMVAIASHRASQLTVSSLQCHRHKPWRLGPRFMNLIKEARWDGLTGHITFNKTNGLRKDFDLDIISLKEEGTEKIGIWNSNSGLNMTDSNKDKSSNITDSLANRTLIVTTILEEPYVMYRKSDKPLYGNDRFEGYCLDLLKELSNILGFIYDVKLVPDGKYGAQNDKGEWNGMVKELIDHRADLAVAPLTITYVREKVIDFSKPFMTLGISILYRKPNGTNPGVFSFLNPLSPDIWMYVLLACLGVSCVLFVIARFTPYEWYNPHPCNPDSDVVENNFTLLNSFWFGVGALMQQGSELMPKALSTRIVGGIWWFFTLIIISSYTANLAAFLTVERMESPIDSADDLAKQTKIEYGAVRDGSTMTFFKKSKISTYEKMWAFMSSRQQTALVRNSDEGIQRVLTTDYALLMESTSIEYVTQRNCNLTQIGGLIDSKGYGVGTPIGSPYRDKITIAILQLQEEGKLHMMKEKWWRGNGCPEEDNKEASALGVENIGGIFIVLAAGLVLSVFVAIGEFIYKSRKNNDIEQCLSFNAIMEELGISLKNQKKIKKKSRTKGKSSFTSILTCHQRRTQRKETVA

CN[C@H](CC(=O)O)C(=O)O [NMDA, N-methyl-D-aspartate]
binding of NMDA: little or no demonstrable binding
